Laboratory results from ChEMBL document CHEMBL1152006, “Pharmacological profile and chemical synthesis of SR 48968, a non-peptide antagonist of the neurokinin A (NK2) receptor” (Bioorg Med Chem Lett, 1993).

How the values were obtained:
[1] = tested on: Cavia porcellus; assay: The compound was evaluated for the inhibition of bronchoconstriction in guinea pig at intraduodenal dose of 0.5 mg/Kg; assay type: functional; details: Lung
[2] = tested on: Cavia porcellus; assay: The compound was evaluated for the inhibition of bronchoconstriction in guinea pig at intravenous dose of 0.2 mg/Kg; assay type: functional; details: Lung
[3] = molecular target: T1, Substance-K receptor (Rattus norvegicus, UniProt P16610); assay: Inhibition of [125I]NKA binding to neurokinin NK2 receptor from rat duodenum membranes; assay type: cell membranes, Membrane
T1 sequence (P16610 whole entry): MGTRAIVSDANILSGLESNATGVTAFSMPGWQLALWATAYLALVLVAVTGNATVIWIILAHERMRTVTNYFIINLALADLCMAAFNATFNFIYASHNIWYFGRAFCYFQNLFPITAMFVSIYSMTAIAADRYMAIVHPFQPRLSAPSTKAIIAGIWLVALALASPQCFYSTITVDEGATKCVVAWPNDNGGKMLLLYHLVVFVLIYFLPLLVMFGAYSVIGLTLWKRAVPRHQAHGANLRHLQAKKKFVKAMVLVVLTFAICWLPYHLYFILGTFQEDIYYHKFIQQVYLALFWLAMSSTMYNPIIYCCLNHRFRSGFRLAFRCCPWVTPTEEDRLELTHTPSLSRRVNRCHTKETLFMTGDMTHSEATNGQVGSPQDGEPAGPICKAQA

[4] = organism: Oryctolagus cuniculus; assay: The compound was evaluated for the inhibition of [Nle10]-NKA(4-10)-induced contraction of the rabbit pulmonary artery; assay type: functional; details: read-out: pA2 (converted)
[5] = tested on: Cavia porcellus; assay: The compound was evaluated for its effect on bronchoconstriction induced by [Sar9,Met(O2)11]-SP(5 ug/kg, i.v.) in the guinea pig 15 min after administration; assay type: functional
[6] = tested on: Cavia porcellus; assay: The compound was evaluated for its effect on bronchoconstriction induced by [Sar9,Met(O2)11]-SP(5 ug/kg, i.v.) in the guinea pig 60 min after administration; assay type: functional
[7] = tested on: Cavia porcellus; assay: The compound was evaluated for its effect on bronchoconstriction induced by acetylcholine(60 ug/kg, i.v.) in the guinea pig 15 min after administration; assay type: functional
[8] = tested on: Cavia porcellus; assay: The compound was evaluated for its effect on bronchoconstriction induced by acetylcholine(60 ug/kg, i.v.) in the guinea pig 60 min after administration; assay type: functional
[9] = tested on: Cavia porcellus; assay: The compound was evaluated for its effect on bronchoconstriction induced by histamine(10 ug/kg, i.v.) in the guinea pig 15 min after administration; assay type: functional
[10] = tested on: Cavia porcellus; assay: The compound was evaluated for its effect on bronchoconstriction induced by histamine(10 ug/kg, i.v.) in the guinea pig 60 min after administration; assay type: functional
[11] = tested on: Cavia porcellus; assay: The compound was evaluated for its effect on bronchoconstriction induced by serotonin(10 ug/kg, i.v.) in the guinea pig 15 min after administration; assay type: functional
[12] = tested on: Cavia porcellus; assay: The compound was evaluated for its effect on bronchoconstriction induced by serotonin(10 ug/kg, i.v.) in the guinea pig 60 min after administration; assay type: functional
[13] = tested on: Cavia porcellus; assay: Tested in vivo to antagonize the NKA-induced bronchoconstriction in guinea pig by intraduodenal route; assay type: functional; details: read-out: ID50 (the source's name)
[14] = tested on: Cavia porcellus; assay: Tested in vivo to antagonize the NKA-induced bronchoconstriction in guinea pig intravenously; assay type: functional; details: iv, read-out: ID50 (the source's name)
[15] = molecular target: T2, Substance-K receptor (Mesocricetus auratus, UniProt P51144); assay: The compound was evaluated for the inhibition of [125I]NKA binding to neurokinin NK2 receptor from hamster urinary bladder membranes
T2 sequence (P51144 whole entry): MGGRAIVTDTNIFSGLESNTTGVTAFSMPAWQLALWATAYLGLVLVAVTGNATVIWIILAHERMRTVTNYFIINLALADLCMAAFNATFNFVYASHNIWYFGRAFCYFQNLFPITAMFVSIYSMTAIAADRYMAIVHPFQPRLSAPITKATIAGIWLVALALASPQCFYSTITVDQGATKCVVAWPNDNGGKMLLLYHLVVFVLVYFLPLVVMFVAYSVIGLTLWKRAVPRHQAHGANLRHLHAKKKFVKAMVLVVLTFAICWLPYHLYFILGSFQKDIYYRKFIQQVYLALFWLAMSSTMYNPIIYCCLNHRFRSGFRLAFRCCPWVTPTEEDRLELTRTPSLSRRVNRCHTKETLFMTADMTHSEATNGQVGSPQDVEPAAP

[16] = molecular target: T1, Substance-K receptor; assay: The compound was evaluated for the inhibition of [125I]NKA binding to Tachykinin receptor 2 from rat duodenum membranes; assay type: cell membranes, Membrane

Structure (SMILES)	Ki [3] [nM]	inhibition in vivo at 0.5 mg/kg [1] [%]	inhibition in vivo at 0.2 mg/kg [2] [%]	Kb [4] [nM]	other results
CC(=O)OC1(c2ccccc2)CCN(CCC(CN(C)C(=O)c2ccccc2)c2ccc(Cl)c(Cl)c2)CC1 (stereo not drawn)	0.3	36	98	–	–
CCOC1(c2ccccc2)CCN(CCC(CN(C)C(=O)c2ccccc2)c2ccc(Cl)c(Cl)c2)CC1 (stereo not drawn)	0.9	–	40	0.17	–
CC(=O)NC1(c2ccccc2)CCN(CCC(CNC(=O)c2ccccc2)c2ccc(Cl)c(Cl)c2)CC1 (stereo not drawn)	> 100	–	–	–	–
CC(=O)NCC1(c2ccccc2)CCN(CCC(CN(C)C(=O)c2ccccc2)c2ccc(Cl)c(Cl)c2)CC1 (stereo not drawn)	23	–	–	–	–
CCN(CC(CCN1CCC(OC(C)=O)(c2ccccc2)CC1)c1ccc(Cl)c(Cl)c1)C(=O)c1cccs1 (stereo not drawn)	0.3	34	97	0.447	–
CN(CC(CCN1CCC(c2ccccc2)CC1)c1ccc(Cl)c(Cl)c1)C(=O)c1ccccc1 (stereo not drawn)	> 100	–	–	–	–
CC(=O)NC1(c2ccccc2)CCN(CCC(CN(C)C(=O)c2ccccc2)c2ccc(Cl)c(Cl)c2)CC1 (single isomer, unassigned) [SAREDUTANT]	0.5	100	100	0.0331	Volume of air [5]: 4.4 mL; Volume of air [6]: 4.2 mL; Volume of air [7]: 2.8 mL; Volume of air [8]: 3.2 mL; Volume of air [9]: 3.2 mL; Volume of air [10]: 3.9 mL; Volume of air [11]: 4.5 mL; Volume of air [12]: 4.7 mL; ED50 [13]: 0.35 mg/kg; ED50 [14]: 0.037 mg/kg; Ki [15]: 1.2 nM
CC(=O)NC1(c2ccccc2)CCN(CC[C@H](CN(C)C(=O)c2ccccc2)c2ccc(Cl)c(Cl)c2)CC1 [SAREDUTANT]	–	–	–	–	Ki [16]: 945 nM

The next lines start with results.

Ki [3] [nM]	Structure (SMILES)	inhibition in vivo at 0.5 mg/kg [1] [%]	inhibition in vivo at 0.2 mg/kg [2] [%]	Kb [4] [nM]	other results
1.4	CN(CC(CCN1CCC(O)(c2ccccc2)CC1)c1ccc(Cl)c(Cl)c1)C(=O)c1cccs1 (stereo not drawn)	73	93	0.0676	–
1	CN(CC(CCN1CCC(O)(c2ccccc2)CC1)c1ccc(Cl)c(Cl)c1)C(=O)c1ccsc1 (stereo not drawn)	–	77	0.229	–
1.5	CN(CC(CCN1CCC(O)(c2ccccc2)CC1)c1ccc(Cl)c(Cl)c1)C(=O)c1cccc2ccccc12 (stereo not drawn)	–	0	2.34	–
50	CN(CC(CCN1CCC(CO)(c2ccccc2)CC1)c1ccc(Cl)c(Cl)c1)C(=O)c1ccccc1 (stereo not drawn)	–	–	–	–
1	CN(CC(CCN1CCC(O)(c2ccccc2)CC1)c1ccc(Cl)c(Cl)c1)C(=O)c1ccccc1 (stereo not drawn)	–	93	0.182	–
